Values of other authors as cited in PMC10928227, “Assessing biologic/toxicologic effects of extractables from plastic contact materials for advanced therapy manufacturing using cell painting assay and cytotoxicity screening” (Scientific Reports, 2024).
Like-named read-outs stand apart in the source and are kept apart here.

Tests used:
[1] = cited from earlier work
[2] = cited from earlier work; for Risk based on in vitro genotoxicity data from database (from QSAR-toolbox): not checked for in vivo relevance, ref QSAR Toolbox 4.5 database
[3] = in Vivo, Database Genotoxicity & Carcinogenicity ECVAM, ref EURL ECVAM genotoxicity and carcinogencity database, Madia F et al, 2020
[4] = Salmonella typhimurium, Strain TA 97, in Vitro, Database: Bacterial mutagenicity ISSSTY, ref CCRIS database,Toxnet databases (Romualdo Benigni)
[5] = Salmonella typhimurium, Strain TA 98, in Vitro, Database: Bacterial mutagenicity ISSSTY, ref CCRIS database,Toxnet databases (Romualdo Benigni)
[6] = Salmonella typhimurium, Strain TA 100, in Vitro, Database: Bacterial mutagenicity ISSSTY, ref CCRIS database,Toxnet databases (Romualdo Benigni)
[7] = Salmonella typhimurium, Strain TA 102, in Vitro, Database: Bacterial mutagenicity ISSSTY, ref CCRIS database,Toxnet databases (Romualdo Benigni)
[8] = in Vitro, Database Genotoxicity & Carcinogenicity ECVAM, ref EURL ECVAM genotoxicity and carcinogencity database, Madia F et al, 2020
[9] = in Vitro, Salmonella typhimurium, Strain TA 97, Database Genotoxicity OASIS, ref P&G
[10] = in Vitro, Salmonella typhimurium, Strain TA 98, Database Genotoxicity OASIS, ref P&G
[11] = in Vitro, Salmonella typhimurium, Strain TA 100, Database Genotoxicity OASIS, ref P&G
[12] = in Vitro, Salmonella typhimurium, Strain TA 102, OECD Guideline 471, Database Genotoxicity OASIS, ref CCRIS database,Toxnet databases
[13] = in Vitro, Salmonella typhimurium, Strain TA 1535, Database Genotoxicity OASIS, ref P&G
[14] = in Vitro, Salmonella typhimurium, Strain TA 1537, Database Genotoxicity OASIS, ref P&G
[15] = in Vitro, Salmonella typhimurium, Strain TA 1538, Database Genotoxicity OASIS, ref P&G

Nc1ccccc1 [62-53-3]
Chromosome aberration, in Vivo Mammalian Chromosome Aberration Test ([1]; Database Genotoxicity & Carcinogenicity ECVAM, ref EURL ECVAM genotoxicity and carcinogencity database, Madia F et al, 2020): Positive
Chromosome aberration, Micronucleus Assay [1, 3]: Positive
DNA damage and repair, COMET or Alkaline Elution [1, 3]: Positive
Chromosome aberration, Micronucleus Assay ([1]; in Vivo, Database Genotoxicity OASIS, ref RESS, NB. et. al., MUTAT. RES. 521(1-2):201-208, 2002): Positive
DNA damage and repair, Single Cell Gel Electrophoresis (comet) Assay ([1]; in Vivo, Database Genotoxicity OASIS, ref Yu F. Sasaki et. al., 2000, Critical Reviews in Toxicology,30(6),Pp.629-799): Positive
Genetic Toxicity, Genotoxicity ([2]; Mammalian cell line, test guideline not reported, scale Gene mutation I, ref Database: Food TOX Hazard EFSA): Positive
Gene mutation, Bacterial Reverse Mutation Assay (e.g. Ames Test) [2, 4]: Negative
Gene mutation, Bacterial Reverse Mutation Assay (e.g. Ames Test) ([2]; Salmonella typhimurium, Strain TA 98(NR), in Vitro, Database: Bacterial mutagenicity ISSSTY, ref CCRIS database,Toxnet databases (Romualdo Benigni)): Negative
Gene mutation, Bacterial Reverse Mutation Assay (e.g. Ames Test) [2, 5]: Negative
Gene mutation, Bacterial Reverse Mutation Assay (e.g. Ames Test) ([2]; Salmonella typhimurium, Strain TA 98, in Vitro, Database: Genotoxicity OASIS, ref Mutation Research, 168 (1986) 69-240, U.S. Environmental Protection Agency): Negative
Gene mutation, Bacterial Reverse Mutation Assay (e.g. Ames Test) ([2]; Salmonella typhimurium, Strain TA 98, in Vitro, Database: Genotoxicity OASIS, ref P&G): Negative
Gene mutation, Bacterial Reverse Mutation Assay (e.g. Ames Test) [2, 6]: Negative
Gene mutation, Bacterial Reverse Mutation Assay (e.g. Ames Test) ([2]; Salmonella typhimurium, Strain TA 100, in Vitro, Database: Genotoxicity OASIS, ref Mutation Research, 168 (1986) 69-240, U.S. Environmental Protection Agency): Negative
Gene mutation, Bacterial Reverse Mutation Assay (e.g. Ames Test) ([2]; Salmonella typhimurium, Strain TA 100, in Vitro, Database: Genotoxicity OASIS, ref P&G): Negative
Gene mutation, Bacterial Reverse Mutation Assay (e.g. Ames Test) [2, 7]: Negative
Gene mutation, Bacterial Reverse Mutation Assay (e.g. Ames Test) ([2]; Salmonella typhimurium, Strain TA 1535, in Vitro, Database: Bacterial mutagenicity ISSSTY, ref CCRIS database,Toxnet databases (Romualdo Benigni)): Negative
Gene mutation, Bacterial Reverse Mutation Assay (e.g. Ames Test) ([2]; Salmonella typhimurium, Strain TA 1535, in Vitro, Database: Genotoxicity OASIS, ref Mutation Research, 168 (1986) 69-240, U.S. Environmental Protection Agency): Negative
Gene mutation, Bacterial Reverse Mutation Assay (e.g. Ames Test) ([2]; Salmonella typhimurium, Strain TA 1535, in Vitro, Database: Genotoxicity OASIS, ref P&G): Negative
Gene mutation, Bacterial Reverse Mutation Assay (e.g. Ames Test) ([2]; Salmonella typhimurium, Strain TA 1537, in Vitro, Database: Bacterial mutagenicity ISSSTY, ref CCRIS database,Toxnet databases (Romualdo Benigni)): Negative
Gene mutation, Bacterial Reverse Mutation Assay (e.g. Ames Test) ([2]; Salmonella typhimurium, Strain TA 1537, in Vitro, Database: Genotoxicity OASIS, ref Mutation Research, 168 (1986) 69-240, U.S. Environmental Protection Agency): Negative
Gene mutation, Bacterial Reverse Mutation Assay (e.g. Ames Test) ([2]; Salmonella typhimurium, Strain TA 1537, in Vitro, Database: Genotoxicity OASIS, ref P&G): Negative
Gene mutation, Bacterial Reverse Mutation Assay (e.g. Ames Test) ([2]; Salmonella typhimurium, Strain TA 1538, in Vitro, Database: Bacterial mutagenicity ISSSTY, ref CCRIS database,Toxnet databases (Romualdo Benigni)): Negative
Chromosome aberration, in Vitro Mammalian Chromosome Aberration Test ([2]; in Vitro, Chinese hamster, Chinese Hamster Lung (CHL), Duration 6÷18 h, Database Genotoxicity OASIS, ref Sofuni, T., Ed. (1998). Data Book of Chromosomal Aberration Test In Vitro, Revised Edition): Positive
Chromosome aberration, Micronucleus Assay [2, 8]: Positive
Chromosome aberration, in Vitro Mammalian Chromosome Aberration Test [2, 8]: Positive
Gene mutation, Mammalian Cell Gene Mutation (MLA HPRT) [2, 8]: Positive
Gene mutation, Bacterial Reverse Mutation Assay (e.g. Ames Test) ([2]; in Vitro, Salmonella typhimurium and Escherichia Coli, Database Genotoxicity & Carcinogenicity ECVAM, ref EURL ECVAM genotoxicity and carcinogencity database, Madia F et al, 2020): Negative
Gene mutation, Bacterial Reverse Mutation Assay (e.g. Ames Test) [2, 9]: Negative
Gene mutation, Bacterial Reverse Mutation Assay (e.g. Ames Test) ([2]; in Vitro, Salmonella typhimurium, Strain TA 98, Database Genotoxicity OASIS, ref Mutation Research, 168 (1986) 69-240, U.S. Environmental Protection Agency): Negative
Gene mutation, Bacterial Reverse Mutation Assay (e.g. Ames Test) [2, 10]: Negative
Gene mutation, Bacterial Reverse Mutation Assay (e.g. Ames Test) [2, 11]: Negative
Gene mutation, Bacterial Reverse Mutation Assay (e.g. Ames Test) [2, 12]: Negative
Gene mutation, Bacterial Reverse Mutation Assay (e.g. Ames Test) [2, 13]: Negative
Gene mutation, Bacterial Reverse Mutation Assay (e.g. Ames Test) ([2]; in Vitro, Salmonella typhimurium, Strain TA 1537, Database Genotoxicity OASIS, ref Mutation Research, 168 (1986) 69-240, U.S. Environmental Protection Agency): Negative
Gene mutation, Bacterial Reverse Mutation Assay (e.g. Ames Test) [2, 14]: Negative
Gene mutation, Bacterial Reverse Mutation Assay (e.g. Ames Test) [2, 15]: Negative
Genetic Toxicity, unscheduled DNA synthesis (UDS in Vitro) ([2]; in Vitro, scale Mutagenicity I (ECVAM), ref EURL ECVAM genotoxicity and carcinogencity database, Madia F et al, 2020): Negative

CCCC(C)=O [107-87-9]
Gene mutation, Bacterial Reverse Mutation Assay (e.g. Ames Test) ([2]; in Vitro, Salmonella typhimurium, No Strain Information, Database Genotoxicity OASIS, ref J. Chem. Inf. Model., 2009, 49 (9), pp 2077–2081, Hansen K. et al.): Negative

CCCCCCCC(=O)O [124-07-2]
Chromosome aberration, in Vitro Mammalian Chromosome Aberration Test ([2]; in Vitro, Chinese hamster, Chinese Hamster Lung Cells, Guidelines For Screening Mutagenicity Testing of Chemicals (Chemical Substances Control Law of Japan), Database Toxicity Japan MHLW, ref Japan Ministry of Health Labour and Welfare, http://dra4.nihs.go.jp/mhlw_data/jsp/SearchPageENG.jsp): Negative

S=c1[nH]c2ccccc2s1 [149-30-4]
Chromosome aberration, in Vitro Mammalian Chromosome Aberration Test ([2]; in Vitro, No Strain Information, Database Genotoxicity OASIS, ref Mutation Research 584 (2005) 1-256, Kirkland et al.): Positive
Gene mutation, Mammalian Cell Gene Mutation Assay ([2]; in Vitro, T-lymphoma Cell Lines, Database Genotoxicity OASIS, ref Mutation Research 584 (2005) 1-256, Kirkland et al.): Positive

CN1CCCC1=O [872-50-4]
Gene mutation, Bacterial Reverse Mutation Assay (e.g. Ames Test) [2, 4]: Negative
Gene mutation, Bacterial Reverse Mutation Assay (e.g. Ames Test) [2, 5]: Negative
Gene mutation, Bacterial Reverse Mutation Assay (e.g. Ames Test) [2, 6]: Negative
Gene mutation, Bacterial Reverse Mutation Assay (e.g. Ames Test) [2, 7]: Negative
Gene mutation, Bacterial Reverse Mutation Assay (e.g. Ames Test) ([2]; Salmonella typhimurium, Strain TA 104, in Vitro, Database: Bacterial mutagenicity ISSSTY, ref CCRIS database,Toxnet databases (Romualdo Benigni)): Negative
Gene mutation, Bacterial Reverse Mutation Assay (e.g. Ames Test) ([2]; Salmonella typhimurium, Strain TA 2638, in Vitro, Database: Bacterial mutagenicity ISSSTY, ref CCRIS database,Toxnet databases (Romualdo Benigni)): Negative
Gene mutation, Bacterial Reverse Mutation Assay (e.g. Ames Test) ([2]; in Vitro, Salmonella typhimurium, No Strain Information, Database Genotoxicity OASIS, ref Journal of Medicinal Chemistry 48 (1), pp. 312-32, 25, Kazius J, McGuire R., Bursi R): Negative
Gene mutation, Bacterial Reverse Mutation Assay (e.g. Ames Test) [2, 9]: Negative
Gene mutation, Bacterial Reverse Mutation Assay (e.g. Ames Test) [2, 10]: Negative
Gene mutation, Bacterial Reverse Mutation Assay (e.g. Ames Test) [2, 11]: Negative
Gene mutation, Bacterial Reverse Mutation Assay (e.g. Ames Test) [2, 12]: Negative
Gene mutation, Bacterial Reverse Mutation Assay (e.g. Ames Test) [2, 13]: Negative
Gene mutation, Bacterial Reverse Mutation Assay (e.g. Ames Test) [2, 14]: Negative
Gene mutation, Bacterial Reverse Mutation Assay (e.g. Ames Test) [2, 15]: Negative

Cc1cc(C)c(C(=O)P(=O)(c2ccccc2)c2ccccc2)c(C)c1 [75980-60-8]
Chromosome aberration, in Vitro Mammalian Chromosome Aberration Test ([2]; in Vitro, Chinese hamster, Chinese Hamster Cells, Database Genotoxicity OASIS, ref Scientific Committee on Consumer Safety ( SCCS), 27 March 2014, SCCS/1528/14): Negative

CC(=O)c1ccccc1 [Acetophenone]
Risk based on in vitro genotoxicity data from database (from QSAR-toolbox) [2]: Positive in vitro data

Nc1ccccc1 [Aniline]
Risk based on in vitro genotoxicity data from database (from QSAR-toolbox) [2]: Positive in vitro data

OCc1ccccc1 [Benzylalcohol]
Risk based on in vitro genotoxicity data from database (from QSAR-toolbox) [2]: Positive in vitro data

CC(C)(c1ccc(O)cc1)c1ccc(O)cc1 [Bisphenol A]
Risk based on in vitro genotoxicity data from database (from QSAR-toolbox) [2]: Positive in vitro data

Cc1cc(C(C)(C)C)c(O)c(C(C)(C)C)c1 [Butylated hydroxytoluene]
Risk based on in vitro genotoxicity data from database (from QSAR-toolbox) [2]: Positive in vitro data

O=C1CCCCCN1 [Caprolactam]
Risk based on in vitro genotoxicity data from database (from QSAR-toolbox) [2]: Positive in vitro data

Oc1ccccc1 [Phenol]
Measured and predicted data (remark on genetic toxicity) ([2]; heading line of the measured and predicted data section, ref QSAR Toolbox database): suspected of causing genetic defects
Risk based on in vitro genotoxicity data from database (from QSAR-toolbox) [2]: Positive in vitro data
